Measurements as given in PMC12389006, “In Vitro and In Vivo Evaluation of Alectinib-Loaded Dendrimer Nanoparticles as a Drug Delivery System for Non-Small Cell Lung Carcinoma” (Pharmaceutics, 2025).
Read-outs that look alike come from different tables or passages of the source.

Key:
[1] = test system: A549 lung cancer cell line; assay: MTT cytotoxicity assay; assay type: cell-based; settings: Homo sapiens, A549, 72 h
Description: The A549 cell line, composed of human alveolar basal epithelial adenocarcinoma cells, was used for the in vitro evaluation. Cells were obtained from ATCC through the Faculty of Pharmacy […] University. To maintain the A549 lung cancer cell line, Roswell Park Memorial Institute (RPMI) was employed. The medium was supplemented with 2 mL of L-glutamine, 50 mL of fetal bovine serum (FBS), and 5 mL of penicillin-streptomycin. The frozen A549 cell vials, stored in liquid nitrogen at approximately -196 °C, were quickly thawed at 37 °C in a water bath. The contents were then diluted with 10 mL of pre-warmed media and then centrifuged at 1500 rpm for 10 min. After discarding the supernatant, the tube was gently agitated to disperse the cells, and fresh medium (15 mL) was added. […] Their confluency level was maintained within the ideal range of 80-90%. To assess cell viability, a 1:1 mixture of 50 μL of Trypan blue stain and 50 μL of cell solution was prepared in an Eppendorf tube. Then, 5 × 10^3 cells were inoculated into individual wells of 96-well microplates using 100 μL of medium. […] Negative control wells received 0.1% DMSO, while blank wells were filled with RPMI medium without cells. […] The absorbance of the formazan solution in each well was promptly quantified at 590 nm utilizing a 96-well plate reader manufactured by Biotech, and the IC50 values were calculated according to Equation (2).

[2] = test system: H460 large lung cancer cells; assay type: in vivo; settings: H460 xenograft mice, 20 mg/kg
Description: This study involved 24 male BALC mice, aged 5 weeks and weighing 20 ± 2 g, housed under controlled environmental conditions (temperature: 25.2 °C, humidity: 60 ± 5%, 12 h light–dark cycle) with ad libitum access to standard rodent chow and autoclaved water. […] Human lung large-cell carcinoma (H460) cells were cultured in RPMI 1640 medium, prepared through trypsinization and centrifugation, and underwent viability testing with Trypan blue exclusion, then were suspended in ECM Matrigel®. After 21 days of immunosuppression with 5 mg/kg dexamethasone administered intraperitoneally each mouse was subcutaneously injected in the right flank with 2.5 × 10^6 viable H460 cells. Tumor growth was monitored for 14 days using caliper measurements.
To establish an immunosuppressed xenograft model, dexamethasone (5 mg/kg) was administered to all mice for 21 days to suppress their immune response (Figure S8). Following immunosuppression, 2.5 × 10^6 H460 large lung cancer cells were subcutaneously injected into the mice, and tumor growth was monitored every day.

A549 cells [3] = test system: A549 cells; set-up: method as in Ata et al.; settings: ref Ata et al.; cited from earlier work
[4] = test system: resistance-induced overexpressed TGF-α HGF cells; set-up: method as in PMID 31857951; settings: cited from earlier work
A549 cells [5] = assay: Scratch-wound assay for cell migration; assay type: cell-based, human; settings: A549, 72 h
Description: After the cells reached full confluence and formed a uniform monolayer, a scratch approximately 1 mm wide was created across the cell layer using a sterile 200 μL micropipette tip. The wells were then gently washed with phosphate-buffered saline (PBS) to remove cellular debris. […] To evaluate wound closure, images of the scratch area were captured at the start of the experiment (0 h) and after 72 h of treatment. Image analysis was performed using ImageJ® software (version 1.4.3.67, Symmetry Software) to measure the wound area and assess cell migration quantitatively

[6] = In vitro drug release, dialysis method in PBS; assay type: physicochemical; settings: pH 6.8 PBS, 1.5% SLS, 37 °C
Description: In vitro drug release studies were performed using the dialysis method. A drug release study was conducted in vitro to measure the amount of drug released from the complex. […] The dissolution study was conducted using the USP II apparatus (paddle) under the following conditions: a stirring speed of 100 rpm, a temperature of 37.0 ± 0.5 °C, and volume of release media of 200 mL. The NP samples were placed in a plastic tube sealed with a dialysis membrane with a molecular weight cut-off (MWCO) of 14,000 Da, which was previously soaked in either buffer for 24 h. […] At predetermined time intervals, 1 mL aliquots were withdrawn and promptly replaced with fresh media. The collected samples were filtered by a 0.22 µm filter membrane and were subsequently injected into the HPLC system at a wavelength of 340 nm.

KARPAS 299 = settings: cited from earlier work
[7] = set-up: method as in PMID 36015320; settings: cited from earlier work
[8] = pH 1.2 and 2.5; cited from earlier work
[9] = Pharmacokinetic study in rats, LC-MS/MS of plasma; assay type: in vivo, Wistar rats; settings: rat, 20 mg/kg oral; for AUC0-t: 20 mg/kg
Description: Quantification and identification of Alectinib were performed using liquid chromatography coupled with mass spectrometry (LC/MS), employing rosuvastatin as the internal standard (IS). […] Detection was carried out with an API-3000 triple quadrupole mass spectrometer (LCMS-2010A, Shimadzu, Japan) featuring an electrospray ionization (ESI) source operated in positive ion mode. […] Detection was achieved using multiple reaction monitoring (MRM) for specific m/z transitions. […] Prior to the experiment, the animals were fasted overnight with free access to water and were marked on the tail for individual identification. The rats were randomly divided into two groups. […] Blood samples were collected from the tail after warming for 30 s using a hot pad to facilitate sampling. […] Sample preparation was carried out using the liquid–liquid extraction (LLE) technique. Frozen plasma samples were thawed at room temperature, vortexed to ensure uniform mixing, and combined with 500 µL acetonitrile (ACN) as diluent, 300 µL plasma, and 50 µL rosuvastatin as the internal standard. The mixture was vortexed for 2 min, centrifuged at 4000 rpm for 15 min, and 200 µL of the supernatant was transferred into LC-MS insert vials. Subsequently, 20 µL of the processed sample was analyzed using LC-MS/MS for quantification and pharmacokinetic evaluation.

[10] = set-up: method as in PMID 36015320; settings: cited from earlier work; remark: listed apart in the source
nB1 (neuroblastoma) = settings: cited from earlier work
NCI-H2228 (lung cancer) = settings: cited from earlier work

## CCc1cc2c(cc1N1CCC(N3CCOCC3)CC1)C(C)(C)c1[nH]c3cc(C#N)ccc3c1C2=O.Cl [Alectinib, 9-ethyl-6,6-dimethyl-8-[4-(morpholine-4-yl)piperidin-1-yl]-11-oxo-6,11-dihydro-5H-benzo[b]carbazole-3-carbonitrile hydrochloride]
[1]
  IC50: 4190 nM
[2]
  tumor outcome in words after 17 days of treatment: minimal amount of residual tumor tissue
  tumor regression / reduction after 17 days of treatment: 75%
A549 cells [3]
  IC50: 9.63 µg/mL
[4]
  IC50: 38.2 nM
A549 cells [5]
  scratch assay outcome in words: completely eradicated the cells
[6]
  Alectinib released over 48 h: 11.1% ± 0.11
KARPAS 299
  IC50: 3 nM
[7]
  absolute bioavailability: 37%
[8]
  stability at low pH: degradation of Alectinib at low pH
[9]; male, Wistar, plasma
  AUC(0-inf): 11800 ng·h/mL
  half-life: 15.4 ± 1.6 h
  k el: 1.25e-05 s⁻¹
[9]; male, Wistar, plasma, po, read-out: AUC0-t
  AUC0-t: 9840 ng·h/mL
[9]
  C-max: 313.83 ± 150.83 ng/mL
  T-max: 9.33 ± 1.1 h
[9]; assumption of linear absorption
  absorption rate constant (Ka): 0.43 h⁻¹
[9]; listed as Free Alectinib
  AUC0-t: 9842.03 ± 3986 ng·h/mL
[10]
  permeability: 250 ×10⁻⁶ cm/s
nB1 (neuroblastoma)
  IC50: 4.5 nM
NCI-H2228 (lung cancer)
  IC50: 53 nM
